# Data: patent publication US4188398A, “Method for treating epilepsy” (priority 1978, dated 1980)
# Columns and labels:
# [1] = Acute toxicity, single intraperitoneal administration, 48 hours (Litchfield and Wilcockson); assay type: in vivo, white mice; conditions: intraperitoneal, white mice, P=0.05; for LD50: 2880 min; for LD50 at 48 h: mouse, in vivo, ip
# Protocol: The acute toxicity of the proposed preparation was tested on white mice weighing 19 to 20 g, by single intraperitoneal administrations of 1.5- and 10-percent colloidal solutions of the anticonvulsant in a 0.5-percent solution of carboxymethyl cellulose. The animals were observed during 48 hours. In order to establish the median lethal dose (LD50), the experimental data was statistically processed using the Litchfield and Wilcockson techniques. Milontin and zarontin were analyzed in the same way.
# [2] = Neurotoxicity: rightening, gait, stance, muscle tone and equilibrium tests; assay type: in vivo; conditions: P = 0.05; for TD50: in vivo, read-out: TD50 (mean neurotoxic dose)
# Protocol: The neurotoxicity levels were determined by conducting rightening, gait, stance, muscle tone and equilibrium tests.
# [3] = Duration of urethane-induced sleep; assay type: in vivo; conditions: milontin 100 mg/kg; for Average Duration of Urethane-Induced Sleep: P = 0.05, urethane 1,000 mg/kg, proposed preparation 100 mg/kg, zarontin 150 mg/kg
# Source text: (§1) Nembutal was used as a trunk narcotic, and urethane as a cortical narcotic.
# [4] = Duration of Nembutal-induced sleep; assay type: in vivo; conditions: for Average Duration of Nembutal-Induced Sleep: P = 0.05, Nembutal 40 mg/kg, proposed preparation 100 mg/kg, zarontin 150 mg/kg, milontin 100 mg/kg
# Source text: as §1
# Camphor convulsions test = conditions: for ED50: Mus musculus, read-out: ED50 (camphor)
# Protocol: (§2) The anticonvulsant action of the proposed preparation was tested on mice weighing 19 to 25 g and rats weighing 120 to 150 g by conducting maximum electroshock, corazol, strychnine, camphor, nicotine and arecoline tests.
# [5] = Maximum electroshock test
# Protocol: as §2
# animal or person = experiment: animal or person
# Protocol: The general effect of the proposed preparation was tested on white mice, rats and rabbits.
# [6] = Clinical comparison in petit mal epilepsy; assay type: in vivo, human (patients)
# Protocol for Corazol convulsion test: as §2
smiles,measurement,setting,value
"CN1C(=O)CC(c2ccccc2)C1=O (stereo not drawn) [Milontin, N-methyl-α-phenylsuccinimide]",LD50,[1],"950 (792 to 1,140) mg/kg"
same,LD50 at 48 h,[1],950 mg/kg
same,TD50 (mean neurotoxic dose),[2],340(278 to 416) mg/kg
same,TD50,[2],340 mg/kg
same,Average Duration of Urethane-Induced Sleep,[3],16.5 ± 4.6 min
same,prolongation of duration of urethane-induced sleep,[3],more than 3 times
same,Average Duration of Nembutal-Induced Sleep,[4],139.2 ± 33.2 min
same,prolongation of the hypnotic action of Nembutal,[4]; in words,statistically significant prolongation
same,"antistrychnine effect, ranking of the three drugs",in words,at its lowest
same,ED50 (strychnine),strychnine,230 mg/kg
same,"protection index I=TD50/ED50, Strychnine",strychnine,1.47
same,"protection index PI (mean lethal dose / mean effective dose), Strychnine",strychnine,4.14
same,ED50,"Corazol convulsion test; Mus musculus, read-out: ED50 (corazol)",87 mg/kg
same,"protection index I=TD50/ED50, Corazol",Corazol convulsion test; corazol,3.91
same,"protection index PI (mean lethal dose / mean effective dose), Corazol",Corazol convulsion test; corazol,10.9
same,ED50,Camphor convulsions test,99 mg/kg
same,"protection index I=TD50/ED50, Camphor",Camphor convulsions test; camphor,3.44
same,"protection index PI (mean lethal dose / mean effective dose), Camphor",Camphor convulsions test; camphor,9.6
same,ED50,"[5]; Mus musculus, read-out: ED50 (Electroshock)",64 mg/kg
same,"protection index I=TD50/ED50, Electroshock",[5]; electroshock,5.3
same,"protection index PI (mean lethal dose / mean effective dose), Electroshock",[5]; electroshock,14.85
same,anticonvulsant activity in maximum electroshock test,[5]; in words,anticonvulsant activity was only exhibited by the proposed preparation and milontin
"CCC1(C)CC(=O)NC1=O (stereo not drawn) [Zarontin, α-methyl, ethylsuccinimide]",dose inducing sleep,animal or person; intraperitoneal,≥ 900 mg/kg
same,dose causing tremors of the hind extremities,"animal or person; mouse, in vivo, ip",700 mg/kg
same,LD50,[1],"1,325 (1,200 to 1,462) mg/kg"
same,LD50 at 48 h,[1],1320 mg/kg
same,TD50 (mean neurotoxic dose),[2],590(513 to 678) mg/kg
same,TD50,[2],590 mg/kg
same,Average Duration of Urethane-Induced Sleep,[3],4.7 ± 2.1 min
same,Average Duration of Nembutal-Induced Sleep,[4],76.9 ± 28.9 min
same,ED50 (strychnine),strychnine,152 mg/kg
same,ED50,Camphor convulsions test,131 mg/kg
CCOC(N)=O [Urethane],Average Duration of Urethane-Induced Sleep,[3],3.3 ± 1.4 min
CCC1(C)CC(=O)NC1=O (stereo not shown) [pyknolepsin],patients with improvement,[6],12 out of 14
CCC1(C)CC(=O)NC1=O (stereo not shown) [suxilep],patients with improvement,[6],10 out of 12
CC1(c2ccccc2)CC(=O)N(CN2CCOCC2)C1=O (stereo not shown) [morpholep],patients with improvement,[6],12 out of 14
CCCC(C)C1(CC)C(=O)NC(=O)NC1=O (stereo not shown) [Nembutal],Average Duration of Nembutal-Induced Sleep,[4],40.8 ± 23.04 min
